Read-outs that look alike come from different tables or passages of the source. Where a SMILES comes first, the peptide text is derived from it. Where no end group is shown, it is not given here.
How the values were obtained:
N417 SCLC cells = experiment: SCLC cell adhesion to extracellular matrix proteins, N417; type: cell-based, human
Procedure: (§1) For adhesion assays of SCLC, these cells were washed once with RPMI 1640 and centrifuged at 400×g for 3 min. The pellet was suspended in 2.5 mM EDTA in PBS, pH 7.4 and incubated for 10 min at 37° C. After trituration three times and centrifugation, the cells were resuspended in RPMI 1640 containing 0.1% BSA (Sigma Co. St Louis, Mo.).
(§2) Adhesion of SCLC cells to extracellular matrix proteins. Extracellular matrix proteins or peptides in Dulbecco's PBS were adsorbed onto polystyrene by incubating overnight at 4° C. […] The supernatant fluid was removed, and the dishes were incubated with Tris-gelatin (ICN) (50 mM Tris-HCl, 110 mM NaCl, 5 mM CaCl2, 0.1 mM phenylmethylsulfonyl fluoride, 0.2% gelatin and 0.02% NaN3, pH 7.8) or Dulbeccos PBS with 1% BSA, as indicated, for 30 min to minimize nonspecific adhesion. The disks were washed twice with cold PBS, pH 7.2 and overlayed with dissociated SCLC cells prepared as described above at a density of 2.5×10^5/cm^2.
(§3) For inhibition studies with SCLC cells, inhibitors or antibodies were added and incubated with SCLC cells at the indicated concentrations. After incubation for 60-90 min at 37° C., the disks were washed by dipping six times in PBS, pH 7.2, fixed with 1% glutaraldehyde in PBS, pH 7.2, and stained with Diff-Quik. Attached cells were counted microscopically.

H345 SCLC cells = experiment: SCLC cell adhesion to extracellular matrix proteins, H345; type: cell-based, human
Procedure: as §1, §2, §3

H69 SCLC cells = experiment: SCLC cell adhesion to extracellular matrix proteins, H69; type: cell-based, human
Procedure: as §1, §2, §3

[1] = system: MDA-MB-435 breast carcinoma cells; experiment: Inhibition of MDA-MB-435 cell adhesion to immobilized peptide 678 (microscopic adhesion assay); type: cell-based, human
Procedure: (§4) Adhesion assays of cells other than small cell lung carcinoma (SCLC)-Adhesion was measured on polystyrene or glass substrates coated with peptides or proteins as previously described (Guo et al., 1992). Peptides dissolved in PBS at 0.4 to 50 μM were incubated in polystyrene microliter plate wells overnight at 4° C. The wells were washed 3 times with distilled water. Adsorbed peptide was quantified using the BCA assay (Pierce Chemical) measuring absorbance at 570 and 630 nm as described by the supplier's protocol. The assay for adsorption was calibrated using purified peptide in solution as a standard. After blocking with 1% BSA in Dulbecco's PBS, adhesion assays were performed by adding cells suspended in DMEM (BAE cells) or medium 199 (human cells) containing 1 mg/ml BSA. Cell attachment and spreading was quantified microscopically.

HUVEC = HUVEC spreading on coated substrates; type: cell-based, human
Procedure: FIGS. 14A, 14B and 14C display α3β1 and αvβ3 integrin-mediated spreading of endothelial cells on thrombospondin-1. […] Results are expressed as percent of the response for untreated cells, mean±S.D., n=3.
as §4

[2] = system: MDA-MB-435 breast carcinoma cells
Procedure: MDA-MB-435 cell adhesion to microliter plate wells coated with 5 uM peptide 678 was determined in the presence of the indicated concentrations of soluble carboxamidomethyl-peptide 716 or peptide 716 covalently linked to FICOLL™ as previously described (Guo et al., 1997). After washing twice to remove unattached cells, adherent cells were quantified by detection of cellular hexosaminidase using p-nitrophenyl-N-acetylglucosaminide as substrate. Released p-nitrophenol was detected by absorbance at 405 nm. Results are mean+/−SD, n=3.
In this case, the adherent cells are quantified by detection of cellular hexosaminidase using p-nitrophenyl-N-acetylglucosaminidine as substrate. Released p-nitrophenol is detected by absorbance at 405 nm.

[3] = system: chick chorioallantoic membrane (CAM) angiogenesis; experiment: Chick chorioallantoic membrane (CAM) angiogenesis assay; type: in vivo, chicken; conditions: relative to control gels, mean ± SD
Procedure: Fertilized Leghorn chicken eggs were obtained from Ramona Duck farm (Westminster, Calif.). At day 3 of development, the embryos were placed on 100 mm petri dishes. Assays were performed as previously described (Iruela-Arispe et al., 1999). […] Peptides were filtered on Centricon P100 prior to their analysis on the CAM assays to eliminate traces of endotoxin. Pellets were applied to the outer ⅓ of the CAM, and the assay was performed for 24 h. Detection of capillary growth was done by injection of FITC-dextran in the bloodstream and observation of the pellets under a fluorescent inverted microscope. Positive controls (growth factors and vehicle), as well as negative controls (vehicle alone) were placed in the same CAM and used as reference of 100% stimulation or baseline inhibition (0%), and response to the peptides was determined according to these internal controls. Assays were performed in duplicate in each CAM and in four independent CAMs (total of 8 pellets).

[4] = system: MDA-MB-435 breast carcinoma cells; experiment: Direct adhesion of MDA-MB-435 cells to peptides adsorbed on polystyrene; type: cell-based, human; conditions: peptides adsorbed at 10 μM (FIG. 2)
Procedure: as §4

[5] = substrate coated at 6.2 μg/ml, mean ± S.D., n = 3
[6] = Table 3, 5 μM peptide 678, read-out: IC50 (μM), inhibition of MDA-MB-435 cell adhesion to immobilized peptide 678
[7] = microscopic adhesion assay, polystyrene coated with 5 μM peptide 678, peptides in solution, read-out: Inhibition of peptide 678 (IC50)

Procedure for BAE cells: Direct adhesion of BAE cells to the adsorbed peptides or uncoated substrate (control) are presented as mean±SD, n=3. […] Two flasks of BAE cells were grown to confluence. One flask was harvested and replated in fresh medium at 25% confluency. Fresh medium was added at the same time to the second flask. After 16 h, cells from both flasks were dissociated using EDTA and adhesion was measured on substrates coated with 40 μg/ml TSP1, 10 μg/ml vitronectin, 20 μg/ml plasma fibronectin, or 5 μg/ml type I collagen. The percent spread cells after 60 min is presented as mean±SD, n=3 for a representative experiment.
Results are presented as mean±SD, n=3. […] The percent spread cells was determined at 60 min.

## fibronectin
N417 SCLC cells; 6.2 μg/ml
  SCLC cell adhesion: 19 ± 2 cells/mm2
N417 SCLC cells; 12.5 μg/ml
  SCLC cell adhesion: 48 ± 4 cells/mm2
N417 SCLC cells; 25 μg/ml
  SCLC cell adhesion: 86 ± 6 cells/mm2
N417 SCLC cells; 50 μg/ml
  SCLC cell adhesion: 78 ± 2 cells/mm2
H345 SCLC cells; 6.2 μg/ml
  SCLC cell adhesion: 0 cells/mm2
H345 SCLC cells; 12.5 μg/ml
  SCLC cell adhesion: 6 ± 2 cells/mm2
H345 SCLC cells; 25 μg/ml
  SCLC cell adhesion: 25 ± 5 cells/mm2
H345 SCLC cells; 50 μg/ml
  SCLC cell adhesion: 17 ± 5 cells/mm2
H69 SCLC cells; 12.5 μg/ml
  SCLC cell adhesion: 5 ± 1 cells/mm2
H69 SCLC cells; 25 μg/ml
  SCLC cell adhesion: 13 ± 3 cells/mm2
H69 SCLC cells; 50 μg/ml
  SCLC cell adhesion: 22 ± 7 cells/mm2
H69 SCLC cells; [5]
  SCLC cell adhesion: 1 ± 1 cells/mm2

## FQGVLQNVHFVF [Peptide 694]
[1]; [6]
  IC50: 54 µM
[1]; [7]
  IC50: 54 µM

## CN(Cc1nc2ccccc2[nH]1)C(=O)c1ccc2c(c1)CN(C)C(=O)[C@H](CC(=O)O)N2 [SB223245, reference compound]
BAE cells; single agent
  inhibition of BAE cell spreading on TSP1: partially inhibited
HUVEC
  inhibition of HUVEC spreading on TSP1: did not significantly inhibit
  inhibition of HUVEC spreading on vitronectin: completely inhibited

## laminin: murine laminin-1 purified from the EHS tumor
N417 SCLC cells; 6.2 μg/ml
  SCLC cell adhesion: 5 ± 1 cells/mm2
N417 SCLC cells; 12.5 μg/ml
  SCLC cell adhesion: 78 ± 3 cells/mm2
N417 SCLC cells; 25 μg/ml
  SCLC cell adhesion: 151 ± 6 cells/mm2
N417 SCLC cells; 50 μg/ml
  SCLC cell adhesion: 160 ± 3 cells/mm2
H345 SCLC cells; 6.2 μg/ml
  SCLC cell adhesion: 6 ± 2 cells/mm2
H345 SCLC cells; 12.5 μg/ml
  SCLC cell adhesion: 8 ± 1 cells/mm2
H345 SCLC cells; 25 μg/ml
  SCLC cell adhesion: 151 ± 31 cells/mm2
H345 SCLC cells; 50 μg/ml
  SCLC cell adhesion: 148 ± 9 cells/mm2
H69 SCLC cells; 12.5 μg/ml
  SCLC cell adhesion: 16 ± 1 cells/mm2
H69 SCLC cells; 25 μg/ml
  SCLC cell adhesion: 82 ± 8 cells/mm2
H69 SCLC cells; 50 μg/ml
  SCLC cell adhesion: 108 ± 11 cells/mm2
H69 SCLC cells; [5]
  SCLC cell adhesion: 1 ± 1 cells/mm2

## FQGVLANVRFVF [Peptide 687]
[1]; [6]
  IC50: 3 µM
[1]; [7]
  IC50: 3 µM

## TPGQVRTLWHDP [Peptide 701]
[1]; [7]
  IC50: > 300 µM

## FQGVLQNVKFVF [Peptide 702]
[1]; [6]
  IC50: 6 µM
[1]; [7]
  IC50: 6 µM
[2]
  IC50: 25 µM

## FQGVLNNVRFVF [Peptide 698]
[1]; [7]
  IC50: 3 µM

## FAGVLQNVRFVF [Peptide 696]
[1]; [6]
  IC50: 1.8 µM
[1]; [7]
  IC50: 1.8 µM
[2]
  IC50: 12 µM
[3]; 5 μM peptide
  Angiogenic response (% inhibition): 5 ± 2%
[3]; 10 μM peptide
  Angiogenic response (% inhibition): 9 ± 3%
[3]; 20 μM peptide
  Angiogenic response (% inhibition): 12 ± 4%

## FQGVLQNARFVF [Peptide 691]
[1]; [6]
  IC50: > 300 µM
[1]; [7]
  IC50: > 300 µM

## Ac-QGVLQNVRF-OH [Peptide 704]
[2]
  IC50: ~100 µM

## SPWSSCSVTCGDGVITRIR [Mal-II]
[4]
  promotion of MDA-MB-435 cell adhesion: weaker adhesive activities

## AQGVLQNVRFVF [Peptide 697]
[1]; [6]
  IC50: 5 µM
[1]; [7]
  IC50: 5 µM

## ELTGAARKGSGRRLVKGPD [Hepl, focal adhesion disrupting peptide from the amino terminal domain of TSP1]
[4]
  promotion of MDA-MB-435 cell adhesion: did not promote

## GRGDSP [reference compound]
BAE cells; 300 μM GRGDSP (FIG. 14A)
  spreading response on TSP1 resistant to the peptide: Approximately 20%
BAE cells; combination with peptide 678
  inhibition of BAE cell spreading on TSP1, GRGDSP combined with the α3β1 binding peptide: completely inhibited

## KRFKQDGGWSHWSPWSS [Peptide 246]
[4]
  promotion of MDA-MB-435 cell adhesion: promoted adhesion

## CC(C)C[C@H](NC(=O)[C@H](CCCNC(=N)N)NC(=O)[C@H](CC(C)C)NC(=O)[C@H](CC(N)=O)NC(=O)[C@H](CCCNC(=N)N)NC(=O)[C@@H](NC(=O)[C@H](CS)NC(=O)CNC(=O)[C@H](CCCNC(=N)N)NC(=O)[C@H](Cc1ccccc1)NC(=O)[C@H](CO)NC(=O)[C@H](C)NC(=O)[C@H](CCCNC(=N)N)NC(=O)[C@H](CO)NC(=O)[C@H](CO)NC(=O)[C@H](CC(C)C)NC(=O)[C@H](CS)NC(=O)[C@H](CC(N)=O)NC(=O)[C@H](CCC(N)=O)NC(=O)[C@@H](N)CCCCN)C(C)C)C(=O)N[C@@H](CO)C(=O)N[C@@H](CCCNC(=N)N)C(=O)O [Peptide 675, reference compound] (H-KQNCLSSRASFRGCVRNLRLSR-OH; N-terminus and C-terminus assumed)
[1]; read-out: IC50, inhibition of adhesion to either peptide or TSP1, tested in solution, data not shown
  IC50: 700 µM

## FQGVLQNVQFVF [Peptide 703]
[1]; [6]
  IC50: > 100 µM
[1]; [7]
  IC50: > 100 µM
[2]
  IC50: 300 µM

## KRFYVVMWKK [Peptide 4N1K]
[4]
  promotion of MDA-MB-435 cell adhesion: promoted adhesion

## FQGVLQNVRAVF [Peptide 692]
[1]; [6]
  IC50: 18 µM
[1]; [7]
  IC50: 18 µM

## Ac-LQNVRF-NH2 [Peptide 681, ac-LQNVRF-am]
[1]; [7]
  IC50: 500 µM

## peptide 716 conjugated to FICOLL: peptide 716 covalently linked to FICOLL (polysucrose) (FQGVLQNVRFVF; not fully specified (N-terminus); also: number of peptides per FICOLL polymer not given here)
[2]; hexosaminidase detection
  inhibition of adhesion of MDA-MB-435 cells to peptide 678, compared to free peptide 716: enhanced

## QGVLQNVRFVF [Peptide 685]
[1]; [7]
  IC50: 24 µM

## VLQNVRFVF [Peptide 688]
[1]; [7]
  IC50: > 100 µM

## QGVLQNVR [Peptide 683]
[1]; [7]
  IC50: > 300 µM

## FQGVLQNVRFVA [Peptide 693]
[1]; [6]
  IC50: 27 µM
[1]; [7]
  IC50: 27 µM

## FQGVAQNVRFVF [Peptide 695]
[1]; [6]
  IC50: 5 µM
[1]; [7]
  IC50: 5 µM

## NGVQYRNC [Peptide 500]
[4]
  promotion of MDA-MB-435 cell adhesion: weaker adhesive activities

## LQNVRFVF [Peptide 684]
[1]; [7]
  IC50: 300 µM

## FQGVLQNVRF [Peptide 682]
[1]; [7]
  IC50: 6 µM

B1: vitronectin: human vitronectin from Sigma (protein, UniProt P04004 20-478, looked up)
Vitronectin: DQESCKGRCTEGFNVDKKCQCDELCSYYQSCCTDYTAECKPQVTRGDVFTMPEDEYTVYDDGEEKNNATVHEQVGGPSLTSDLQAQSKGNPEQTPVLKPEEEAPAPEVGASKPEGIDSRPETLHPGRPQPPAEEELCSGKPFDAFTDLKNGSLFAFRGQYCYELDEKAVRPGYPKLIRDVWGIEGPIDAAFTRINCQGKTYLFKGSQYWRFEDGVLDPDYPRNISDGFDGIPDNVDAALALPAHSYSGRERVYFFKGKQYWEYQFQHQPSQEECEGSSLSAVFEHFAMMQRDSWEDIFELLFWGRTSAGTRQPQFISRDWHGVPGQVDAAMAGRIYISGMAPRPSLAKKQRFRHRNRKGYRSQRGHSRGRNQNSRRPSRATWLSLFSSEESNLGANNYDDYRMDWLVPATCEPIQSVFFFSGDKYYRVNLRTRRVDTVDPPYPRSIAQYWLGCPAPGHL
BAE cells; cells harvested from a confluent monolayer
  percent spread BAE cells on substrate: approximately 60%
